How the values were obtained:
KDM4A = molecular target: T1, KDM4A (Homo sapiens, UniProt O75164); assay: SPR (Biacore T200), protein immobilized on CM5 chip; type: binding
T1 sequence (O75164 2-1064): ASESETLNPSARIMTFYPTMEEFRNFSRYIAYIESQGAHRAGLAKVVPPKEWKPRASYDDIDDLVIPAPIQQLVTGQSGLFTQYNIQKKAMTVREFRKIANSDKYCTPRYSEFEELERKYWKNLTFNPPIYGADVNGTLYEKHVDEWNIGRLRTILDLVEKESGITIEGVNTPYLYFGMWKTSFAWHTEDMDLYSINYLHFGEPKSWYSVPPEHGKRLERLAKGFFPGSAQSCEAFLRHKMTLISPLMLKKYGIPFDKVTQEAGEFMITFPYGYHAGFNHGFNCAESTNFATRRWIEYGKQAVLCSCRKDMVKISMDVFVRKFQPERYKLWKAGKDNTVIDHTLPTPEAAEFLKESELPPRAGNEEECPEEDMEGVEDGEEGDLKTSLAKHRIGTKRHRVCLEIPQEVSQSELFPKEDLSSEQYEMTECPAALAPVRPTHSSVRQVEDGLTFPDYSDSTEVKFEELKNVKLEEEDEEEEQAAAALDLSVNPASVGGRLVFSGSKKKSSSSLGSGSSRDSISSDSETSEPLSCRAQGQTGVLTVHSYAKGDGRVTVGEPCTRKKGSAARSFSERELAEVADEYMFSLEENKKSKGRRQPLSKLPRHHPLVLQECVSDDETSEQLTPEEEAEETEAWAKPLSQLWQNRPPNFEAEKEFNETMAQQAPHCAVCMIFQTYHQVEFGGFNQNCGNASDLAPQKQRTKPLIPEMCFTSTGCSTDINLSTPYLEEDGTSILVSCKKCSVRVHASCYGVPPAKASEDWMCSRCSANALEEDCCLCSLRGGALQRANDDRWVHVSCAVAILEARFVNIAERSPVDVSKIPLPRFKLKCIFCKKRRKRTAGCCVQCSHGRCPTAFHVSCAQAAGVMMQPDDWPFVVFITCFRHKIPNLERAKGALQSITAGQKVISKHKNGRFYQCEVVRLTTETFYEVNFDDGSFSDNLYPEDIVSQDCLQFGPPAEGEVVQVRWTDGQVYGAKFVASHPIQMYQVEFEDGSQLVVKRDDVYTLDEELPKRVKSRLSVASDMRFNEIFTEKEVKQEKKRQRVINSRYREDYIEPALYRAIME

KDM4C = molecular target: T2, KDM4C (Homo sapiens, UniProt Q9H3R0); assay: as above; type: binding
T2 sequence (Q9H3R0 1-1056): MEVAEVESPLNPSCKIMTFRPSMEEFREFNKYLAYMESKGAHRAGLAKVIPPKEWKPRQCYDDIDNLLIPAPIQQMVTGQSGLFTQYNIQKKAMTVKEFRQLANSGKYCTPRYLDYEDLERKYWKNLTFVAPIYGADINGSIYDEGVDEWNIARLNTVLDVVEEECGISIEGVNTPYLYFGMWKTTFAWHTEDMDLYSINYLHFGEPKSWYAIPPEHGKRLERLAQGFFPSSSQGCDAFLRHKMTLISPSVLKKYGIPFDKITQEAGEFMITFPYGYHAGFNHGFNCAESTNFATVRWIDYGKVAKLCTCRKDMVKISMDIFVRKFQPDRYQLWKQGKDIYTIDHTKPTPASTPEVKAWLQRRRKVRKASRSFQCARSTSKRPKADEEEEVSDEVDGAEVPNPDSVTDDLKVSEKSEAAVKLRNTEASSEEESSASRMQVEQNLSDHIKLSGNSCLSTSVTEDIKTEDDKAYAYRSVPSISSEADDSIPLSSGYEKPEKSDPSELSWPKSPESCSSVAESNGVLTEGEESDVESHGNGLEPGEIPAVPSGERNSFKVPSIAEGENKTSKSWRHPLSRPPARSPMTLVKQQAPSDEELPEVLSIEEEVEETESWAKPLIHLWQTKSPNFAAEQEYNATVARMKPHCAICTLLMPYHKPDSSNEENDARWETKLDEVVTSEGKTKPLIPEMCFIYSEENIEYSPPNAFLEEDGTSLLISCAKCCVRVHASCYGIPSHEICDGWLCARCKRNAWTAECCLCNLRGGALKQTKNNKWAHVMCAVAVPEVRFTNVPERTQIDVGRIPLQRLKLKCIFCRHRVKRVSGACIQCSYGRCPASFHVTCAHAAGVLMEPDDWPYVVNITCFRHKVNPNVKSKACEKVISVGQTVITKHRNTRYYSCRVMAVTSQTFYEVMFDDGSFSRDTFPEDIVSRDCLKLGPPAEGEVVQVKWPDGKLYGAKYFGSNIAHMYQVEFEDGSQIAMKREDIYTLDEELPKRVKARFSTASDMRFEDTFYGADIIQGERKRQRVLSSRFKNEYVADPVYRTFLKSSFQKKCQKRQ

Kd (KDM4A) [nM]	Kd (KDM4C) [nM]	SMILES
988	1060	O=C(N/N=C/c1c(O)ccc2ccccc12)c1ccccc1O [SD49-7]
18000	2590	CC(C)C(=O)NC(c1ccco1)c1ccc2cccnc2c1O (stereo not shown) [SD70]

— article PMC9274755, “KDM4 inhibitor SD49-7 attenuates leukemia stem cell via KDM4A/MDM2/p21^CIP1 axis” (Theranostics, 2022)
